Source: patent publication US12071414B2, “Apelin receptor agonists and methods of use thereof” (Sanford Burnham Prebys Medical Discovery Institute, priority 2015, dated 2024)

Key:
[1] = test system: isolated rat heart; conditions: read-out: EC50 of positive inotropic effect, in rats, infusion; cited from earlier work
[2] = test system: heart; conditions: read-out: EC50 of positive inotropic effect; in humans; cited from earlier work
[3] = biological target: T1, human apelin receptor (APJ, AGTRL-one, APLNR) (Homo sapiens, UniProt P35414); experiment: cell-based cAMP TR-FRET assay of apelin receptor activation; conditions: CHO cells expressing human APJ, forskolin-stimulated cAMP, 0.5 h incubation, 50% of control (apelin-13, 1 nM) response; read-out: Potency Category (EC50)
T1 construct: host or cells: Chinese hamster ovary cells, stably integrated receptor
T1 sequence (P35414 1-380): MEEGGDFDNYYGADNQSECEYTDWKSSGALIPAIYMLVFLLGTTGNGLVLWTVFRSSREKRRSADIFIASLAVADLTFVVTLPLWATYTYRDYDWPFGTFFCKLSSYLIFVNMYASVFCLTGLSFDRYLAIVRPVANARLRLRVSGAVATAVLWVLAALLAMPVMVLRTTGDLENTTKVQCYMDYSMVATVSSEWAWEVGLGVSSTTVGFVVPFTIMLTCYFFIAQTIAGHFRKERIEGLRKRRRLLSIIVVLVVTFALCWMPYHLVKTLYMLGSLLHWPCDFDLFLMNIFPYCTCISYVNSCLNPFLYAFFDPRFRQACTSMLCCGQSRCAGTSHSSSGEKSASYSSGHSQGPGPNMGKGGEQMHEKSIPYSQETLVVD
Summary of the method: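 CHO cells stably expressing human APJ were stimulated to raise cAMP, then incubated 0.5 h with compound (0.0-100 μM, ≤1% DMSO). Lysed cAMP measured by competitive TR-FRET immunoassay; efficacy as % of 1 nM apelin-13 response, potency from four-point logistic fit over ≥10 concentrations.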

Compound	EC50 [1]	EC50 [2]	EC50 [3]
apelin-16	~0.033 nM	0.04 to 0.125 nM	–
COc1cc2nc(NC(=O)C(Oc3ccc(C#N)cc3)c3ccc(OCCN4CCCCC4)cc3)sc2cc1OC (stereo not drawn)	–	–	200 to 500 nM
COc1cc2nc(NC(=O)C(Oc3ccc(-c4nnn[nH]4)cc3)c3ccc(C#N)cc3)sc2cc1OC (stereo not drawn)	–	–	> 500 nM
COC(=O)c1cccc(CC(=O)Nc2nc3cc(OC)c(OC)cc3s2)c1	–	–	> 500 nM
CCS(=O)(=O)c1ccc(CC(=O)Nc2nc3cc4c(cc3s2)OCCO4)cc1	–	–	> 500 nM
COc1cc2nc(NC(=O)C(Oc3ccc(C(=O)N(C)C)cc3)c3ccc(C#N)cc3)sc2cc1OC (stereo not drawn)	–	–	< 50 nM
CCS(=O)(=O)c1ccc(C(C)C(=O)Nc2nc3cc(OC)c(OC)cc3s2)cc1 (stereo not drawn)	–	–	> 500 nM
COc1cc2nc(NC(=O)Cc3cccc(S(=O)(=O)C(C)C)c3)sc2cc1OC	–	–	> 500 nM
COc1cc2nc(NC(=O)C(Oc3ccc(C#N)cc3)c3ccc(C(=O)NCCN4CCOCC4)cc3)oc2cc1OC (stereo not drawn)	–	–	200 to 500 nM
COc1cc2nc(NC(=O)Cc3ccc(S(=O)(=O)CC4CC4)cc3)sc2cc1OC	–	–	> 500 nM
CCS(=O)(=O)c1ccc(C(Nc2cccc(C)c2)C(=O)Nc2nc3cc(OC)c(OC)cc3s2)cc1 (stereo not drawn)	–	–	> 500 nM
